From patent US6395717B1, “Therapeutic drug for endotoxin blood symptom and multi-organ failure induced thereby” (priority 1995, dated 2002) come the findings set out here.

In series [1] the test system is renal failure induced by endotoxin. Kind of series: Effect upon renal failure induced by endotoxin (kidney clearance of inulin and paraaminohippuric acid). It counts as in vivo, Whister-strain rats. Conditions: 10 mg/Kg intravenous. On the procedure:
Into each of ten Whister-strain rats (8 to 9 week age) having undergone cannulation at the carotid canal and the bladder was intraveneously drip-infused a 4% manitol solution containing inulin (5 mg/ml) and paraaminohippuric acid (2.5 mg/ml) at a rate of 0.1144 ml/min. Thirty minutes thereafter, a physiological saline solution of sialic acid ([…]) was administered, at a rate of 0.2 ml/100 g (dosage: 10 mg/Kg), to each of the rats administered with sialic acid, whereas the same amount of physiological saline was rapidly interveneously injected to the control rats. Another thirty minutes thereafter, a physiological saline solution of endotoxin was interaveneously injected to the rats (dosage: 0.25 mg/Kg). Then, blood and urine were sampled over 90 minutes, and the concentrations of inulin and paraaminohippuric acid were measured. A kidney clearance was calculated according to the following formula. Urine was collected at an interval of 15 minutes after the administration of sialic acid or physiological saline (in FIG. 2, −15 to 0 minutes, 0 to 15 minutes, 15 to 30 minutes, 30 to 45 minutes and 45 to 60 minutes), and blood was sampled at a middle point of a time period during urine-collecting. The clearance values are shown at such middle points for the respective fractions.
Kidney clearance=Amount of the drug recovered in urine collected in the collecting time period÷Concentration of the drug in plasma at the middle point
The concentration of inulin was measured by the Dishe & Borefreund's method (Z. Dishe and E. Borefreund, J. Biol. Chem., 192, 583-587 (1951)), and the concentration of paraaminohippuric acid was measured by the Marshall's method (E. K. Marshall, J. Biol. Chem., 122, 263-273 (1937)).
Results of the ratio in the filtering speed through glomerulus are shown in FIG. 2, and results of the ratio in renal plasma flow are in FIG. 3. In both the figures, the ordinate means the ratio in the filtering speed through glomerulus or the ratio in the renal plasma flow for 30 minutes between the intraveneous dip infusion of inulin and paraaminohippuric acid and the intraveneous injection of sialic acid or physiological saline.

A further series concerns endotoxin-shock. Kind of series: Effect of sialic acid in reduction of endotoxin-shock (survival 24 hours after endotoxin). The series is classed as in vivo, SMA-strain male mice. The note with it: living mice 24 hours later. On the procedure:
Tests were conducted with respect to endotoxin-sensitive, SMA-strain male mice (20 to 30 g) used: (1) sixteen control mice, (2) eight mice each administrated with sialic acid and (3) six mice each administrated with a polymer of sialic acid. (1) With respect to the control mice, 0.1 ml/10 g of physiological saline was peritoneally administrated 30 minutes before the administration of an endotoxin. (2) With respect to the mice administrated with sialic acid, a solution in which 100 mg of sialic acid was dissolved in 10 ml of physiological saline or a ten-times diluted solution thereof was peritoneally administrated to the mouse at a rate of 0.1 ml/10 g of the mouse (Dosage: 100 mg/Kg, 10 mg/Kg). (3) With respect to the mice administrated with the sialic acid polymer, a solution in which 100 mg of a dimer or a trimmer of sialic acid was dissolved in 10 ml of physiological saline or a ten-times was peritoneally administrated to the mouse at a rate of 0.1 ml/10 g (Dosage: 100 mg/Kg). Thirty minutes after the administration, a physiological saline solution of endotoxin (10 mg/ml) was peritoneally administrated to the mouse at a rate of […] (administrated amount: 100 mg/Kg). Then, the number of living mice 24 hours later was checked. […]

The mark [2] stands for this setting: endotoxin 0.25 mg/Kg iv 30 minutes later, 30 minutes after endotoxin administration.

Each structure is given as a SMILES string.

On to `CC(=O)N[C@H]1[C@H]([C@H](O)[C@H](O)CO)OC(O)(C(=O)O)C[C@@H]1O` (stereo partly drawn) [sialic acid, N-acetylneuraminic acid], for which the “influence on the ratio in the filtering speed through glomerulus and the ratio in the renal plasma flow, sialic acid alone” value in series [1] (before endotoxin administration) is listed as “no influence was observed”. Moreover, in series [1] (setting [2]), the “decrease of the ratio in the filtering speed through glomerulus” value worked out at 30% and the “decrease of the ratio in the renal plasma flow” value came out at 20%. Further, the “reduction in both the ratio in the filtering speed through glomerulus and the ratio in the renal plasma flow due to endotoxin” value in series [1] (risk degree of 5% versus control rats) is reported as “significantly prevented”. The survival rate with endotoxin-shock (10 mg/Kg peritoneally 30 minutes before endotoxin 100 mg/Kg peritoneally, n=8) came out at 50%. In the series with endotoxin-shock (100 mg/Kg peritoneally 30 minutes before endotoxin 100 mg/Kg peritoneally), this molecule yielded a survival rate of 87.5%.
